Tests used:
[1] = target: Tyrosine-protein kinase CSK (Homo sapiens, UniProt P41240); assay: Inhibition of CSK (unknown origin)
[2] = Volume of distribution at steady state in cynomolgus monkey at 1 mg/kg, iv by LC/MS/MS method; assay type: ADME, organism-based, Macaca fascicularis; details: in vivo, read-out: Vdss
[3] = AUC (0 to 24 hrs) in cynomolgus monkey at 3 mg/kg, po by LC/MS/MS method; assay type: ADME, organism-based, Macaca fascicularis; set-up: time < 24 hr, dose 3 mg/kg, route oral; details: in vivo
[4] = AUC (0 to 24 hrs) in Sprague-Dawley rat at 1 mg/kg, iv by LC/MS/MS method; assay type: ADME, organism-based; set-up: dose 1 mg/kg, time < 24 hr, route intravenous; details: in vivo
[5] = target: Mitogen-activated protein kinase 10 (Homo sapiens, UniProt P53779); assay: Inhibition of JNK3 (unknown origin)
[6] = target: Protein kinase C alpha type (Homo sapiens, UniProt P17252); assay: Inhibition of PKCalpha (unknown origin)
[7] = target: Tyrosine-protein kinase ABL1 (Homo sapiens, UniProt P00519); assay: Inhibition of ABL (unknown origin)
Chain of Tyrosine-protein kinase ABL1 (P00519 whole entry): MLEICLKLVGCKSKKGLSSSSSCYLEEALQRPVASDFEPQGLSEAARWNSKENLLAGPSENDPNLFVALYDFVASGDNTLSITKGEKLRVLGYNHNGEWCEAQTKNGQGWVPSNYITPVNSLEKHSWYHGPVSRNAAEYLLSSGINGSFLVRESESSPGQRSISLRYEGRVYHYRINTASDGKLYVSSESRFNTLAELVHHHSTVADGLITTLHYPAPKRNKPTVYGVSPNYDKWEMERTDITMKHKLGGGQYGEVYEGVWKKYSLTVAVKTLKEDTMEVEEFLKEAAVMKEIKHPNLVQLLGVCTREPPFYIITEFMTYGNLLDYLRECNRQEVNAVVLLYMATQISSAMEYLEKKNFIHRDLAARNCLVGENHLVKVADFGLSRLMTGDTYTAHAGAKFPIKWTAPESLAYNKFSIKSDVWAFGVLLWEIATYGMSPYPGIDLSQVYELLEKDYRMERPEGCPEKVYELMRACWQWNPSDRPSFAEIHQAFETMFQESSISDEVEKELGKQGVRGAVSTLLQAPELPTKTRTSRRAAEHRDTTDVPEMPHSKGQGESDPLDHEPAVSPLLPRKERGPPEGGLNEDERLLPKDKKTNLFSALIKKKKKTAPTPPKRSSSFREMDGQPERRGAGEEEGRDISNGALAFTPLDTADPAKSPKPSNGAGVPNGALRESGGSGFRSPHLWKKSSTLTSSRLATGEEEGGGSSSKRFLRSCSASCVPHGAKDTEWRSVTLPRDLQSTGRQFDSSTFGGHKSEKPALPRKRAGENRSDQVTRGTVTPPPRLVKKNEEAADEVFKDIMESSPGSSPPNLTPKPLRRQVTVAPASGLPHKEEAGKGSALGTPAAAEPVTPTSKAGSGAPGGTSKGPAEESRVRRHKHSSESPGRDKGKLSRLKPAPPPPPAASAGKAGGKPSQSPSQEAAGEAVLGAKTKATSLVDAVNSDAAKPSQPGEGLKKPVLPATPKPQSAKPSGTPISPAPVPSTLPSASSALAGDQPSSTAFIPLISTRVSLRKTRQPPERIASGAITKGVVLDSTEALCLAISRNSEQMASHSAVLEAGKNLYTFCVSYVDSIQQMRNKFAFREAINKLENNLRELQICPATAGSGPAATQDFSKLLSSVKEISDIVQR

[8] = target: Dual specificity mitogen-activated protein kinase kinase 1 (Homo sapiens, UniProt Q02750); assay: Inhibition of MEK1 (unknown origin)
[9] = target: Tyrosine-protein kinase Tec (Homo sapiens, UniProt P42680); assay: Inhibition of TEC (unknown origin)
[10] = Total clearance in beagle dog at 1 mg/kg, iv by LC/MS/MS method; assay type: ADME, organism-based, Canis lupus familiaris; details: in vivo
Rattus norvegicus [11] = assay: Inhibition of allograft rejection in Lewis rat vascularized heterotopic cardiac transplantation model using ACI rat as cardiac donor assessed as mean survival time by measuring cardiac allograft function by daily palpation for 28 days at 10 and 20 mg/kg, po administered beginning on day of operation once daily for 14 consecutive days (reference value: 5 days); assay type: functional, organism-based
[12] = Intrinsic clearance in beagle dog liver microsomes at 0.2 uM in presence of NADPH generating system by LC/MS/MS method; assay type: ADME, Canis lupus familiaris; details: read-out: CLH
[13] = AUC (0 to 24 hrs) in beagle dog at 1 mg/kg, iv by LC/MS/MS method; assay type: ADME, organism-based, Canis lupus familiaris; set-up: dose 1 mg/kg, time < 24 hr, route intravenous; details: in vivo
[14] = AUC (0 to 24 hrs) in beagle dog at 3 mg/kg, po by LC/MS/MS method; assay type: ADME, organism-based, Canis lupus familiaris; set-up: time < 24 hr, dose 3 mg/kg, route oral; details: in vivo
Ephrin type-A receptor 2 = Ephrin type-A receptor 2 (Homo sapiens, UniProt P29317); assay: Inhibition of EPHA2 (unknown origin)
[15] = target: Bone morphogenetic protein receptor type-1A (Homo sapiens, UniProt P36894); assay: Inhibition of BMPR1A (unknown origin)
[16] = Cmax in beagle dog at 3 mg/kg, po by LC/MS/MS method; assay type: ADME, organism-based, Canis lupus familiaris; set-up: dose 3 mg/kg, route oral; details: in vivo
[17] = Oral bioavailability in cynomolgus monkey at 3 mg/kg by LC/MS/MS method; assay type: ADME, organism-based, Macaca fascicularis; details: in vivo
[18] = Oral bioavailability in Sprague-Dawley rat at 3 mg/kg by LC/MS/MS method; assay type: ADME, organism-based; details: in vivo
[19] = Volume of distribution at steady state in Sprague-Dawley rat at 1 mg/kg, iv by LC/MS/MS method; assay type: ADME, organism-based; details: in vivo, read-out: Vdss
[20] = AUC (0 to 24 hrs) in cynomolgus monkey at 1 mg/kg, iv by LC/MS/MS method; assay type: ADME, organism-based, Macaca fascicularis; set-up: time < 24 hr, dose 1 mg/kg, route intravenous; details: in vivo
[21] = Cmax in cynomolgus monkey at 3 mg/kg, po by LC/MS/MS method; assay type: ADME, organism-based, Macaca fascicularis; set-up: dose 3 mg/kg, route oral; details: in vivo
Rattus norvegicus [22] = assay: Inhibition of allograft rejection in Lewis rat vascularized heterotopic cardiac transplantation model using ACI rat as cardiac donor assessed as mean survival time by measuring cardiac allograft function by daily palpation for 28 days at 20 mg/kg, po administered beginning on day of operation once daily for 14 consecutive days (reference value: 5 days); assay type: functional
[23] = target: RAC-alpha serine/threonine-protein kinase (Homo sapiens, UniProt P31749); assay: Inhibition of AKT1 (unknown origin)
[24] = target: High affinity nerve growth factor receptor (Homo sapiens, UniProt P04629); assay: Inhibition of TRKA (unknown origin)
[25] = target: Epidermal growth factor receptor (Homo sapiens, UniProt P00533); assay: Inhibition of EGFR (unknown origin)
[26] = target: Cyclin-dependent kinase 2/cyclin A (Homo sapiens, UniProt P24941); assay: Inhibition of CDK2/CycA (unknown origin); assay type: protein-complex assay
[27] = target: Tyrosine-protein kinase SYK (Homo sapiens, UniProt P43405); assay: Inhibition of SYK (unknown origin)
[28] = target: Casein kinase I isoform delta (Homo sapiens, UniProt P48730); assay: Inhibition of CK1delta (unknown origin)
Chain of Casein kinase I isoform delta (P48730 whole entry, canonical isoform): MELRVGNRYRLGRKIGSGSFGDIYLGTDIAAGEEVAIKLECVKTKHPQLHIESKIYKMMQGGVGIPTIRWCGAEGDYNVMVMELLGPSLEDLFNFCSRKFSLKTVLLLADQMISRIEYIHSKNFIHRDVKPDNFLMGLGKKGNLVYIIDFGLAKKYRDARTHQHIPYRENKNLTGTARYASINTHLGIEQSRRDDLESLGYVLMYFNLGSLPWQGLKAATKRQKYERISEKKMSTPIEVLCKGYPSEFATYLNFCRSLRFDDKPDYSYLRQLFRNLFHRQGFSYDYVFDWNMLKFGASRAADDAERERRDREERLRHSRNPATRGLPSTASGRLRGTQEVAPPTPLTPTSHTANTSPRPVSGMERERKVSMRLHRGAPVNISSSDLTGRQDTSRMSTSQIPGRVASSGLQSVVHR

Rattus norvegicus [29] = assay: Inhibition of allograft rejection in Lewis rat vascularized heterotopic cardiac transplantation model using ACI rat as cardiac donor assessed as mean survival time by measuring cardiac allograft function by daily palpation for 28 days at 10 mg/kg, po administered beginning on day of operation once daily for 14 consecutive days (reference value: 5 days); assay type: functional
Focal adhesion kinase 1 = Focal adhesion kinase 1 (Homo sapiens, UniProt Q05397); assay: Inhibition of FAK (unknown origin)
[30] = Half life in Sprague-Dawley rat at 1 mg/kg, iv by LC/MS/MS method; assay type: ADME, organism-based; details: in vivo
[31] = target: Receptor tyrosine-protein kinase erbB-2 (Homo sapiens, UniProt P04626); assay: Inhibition of HER2 (unknown origin)
[32] = Tmax in cynomolgus monkey at 3 mg/kg, po by LC/MS/MS method; assay type: ADME, organism-based, Macaca fascicularis; details: in vivo
[33] = target: Serine/threonine-protein kinase Chk1 (Homo sapiens, UniProt O14757); assay: Inhibition of CHK1 (unknown origin)
[34] = target: Mitogen-activated protein kinase kinase kinase 1 (Homo sapiens, UniProt Q13233); assay: Inhibition of MEKK1 (unknown origin)
[35] = target: Protein kinase C theta type (Homo sapiens, UniProt Q04759); assay: Inhibition of PKCtheta (unknown origin)
Chain of Protein kinase C theta type (Q04759 whole entry): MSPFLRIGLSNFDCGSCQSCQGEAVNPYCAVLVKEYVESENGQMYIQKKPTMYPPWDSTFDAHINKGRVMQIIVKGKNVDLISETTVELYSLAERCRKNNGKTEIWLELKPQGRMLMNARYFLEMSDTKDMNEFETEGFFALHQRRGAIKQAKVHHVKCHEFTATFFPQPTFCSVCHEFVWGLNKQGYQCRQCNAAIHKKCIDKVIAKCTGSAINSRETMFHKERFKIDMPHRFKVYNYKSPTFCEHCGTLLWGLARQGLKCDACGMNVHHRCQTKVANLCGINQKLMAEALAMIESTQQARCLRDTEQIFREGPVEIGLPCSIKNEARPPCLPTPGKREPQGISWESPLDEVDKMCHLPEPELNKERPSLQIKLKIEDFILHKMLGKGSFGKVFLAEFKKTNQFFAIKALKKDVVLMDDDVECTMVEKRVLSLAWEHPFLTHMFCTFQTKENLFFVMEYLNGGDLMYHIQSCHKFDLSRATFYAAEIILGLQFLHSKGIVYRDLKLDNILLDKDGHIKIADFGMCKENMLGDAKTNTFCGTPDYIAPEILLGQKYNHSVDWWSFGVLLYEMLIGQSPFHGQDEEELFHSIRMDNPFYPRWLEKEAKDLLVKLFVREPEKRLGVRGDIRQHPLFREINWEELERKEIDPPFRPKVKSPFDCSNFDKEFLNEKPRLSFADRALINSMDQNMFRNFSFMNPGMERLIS

[36] = target: Interleukin-1 receptor-associated kinase 4 (Homo sapiens, UniProt Q9NWZ3); assay: Inhibition of IRAK4 (unknown origin)
Chain of Interleukin-1 receptor-associated kinase 4 (Q9NWZ3 whole entry): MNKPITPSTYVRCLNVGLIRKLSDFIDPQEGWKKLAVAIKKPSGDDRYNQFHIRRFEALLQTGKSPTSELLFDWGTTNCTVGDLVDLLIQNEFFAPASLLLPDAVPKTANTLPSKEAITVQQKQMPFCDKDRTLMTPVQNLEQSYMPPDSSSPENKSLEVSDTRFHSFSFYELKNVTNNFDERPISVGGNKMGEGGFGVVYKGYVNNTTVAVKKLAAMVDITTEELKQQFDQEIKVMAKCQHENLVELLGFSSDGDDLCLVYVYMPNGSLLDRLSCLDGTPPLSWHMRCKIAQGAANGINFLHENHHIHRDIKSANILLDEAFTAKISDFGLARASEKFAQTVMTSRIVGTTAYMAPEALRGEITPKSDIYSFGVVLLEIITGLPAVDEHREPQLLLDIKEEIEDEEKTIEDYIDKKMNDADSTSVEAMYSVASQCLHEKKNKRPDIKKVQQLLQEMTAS

[37] = Oral bioavailability in beagle dog at 3 mg/kg by LC/MS/MS method; assay type: ADME, organism-based, Canis lupus familiaris; details: in vivo
[38] = AUC (0 to 24 hrs) in Sprague-Dawley rat at 3 mg/kg, po by LC/MS/MS method; assay type: ADME, organism-based; set-up: dose 3 mg/kg, time < 24 hr, route oral; details: in vivo
[39] = Volume of distribution at steady state in beagle dog at 1 mg/kg, iv by LC/MS/MS method; assay type: ADME, organism-based, Canis lupus familiaris; details: in vivo, read-out: Vdss
[40] = Total clearance in Sprague-Dawley rat at 1 mg/kg, iv by LC/MS/MS method; assay type: ADME, organism-based; details: in vivo
[41] = target: Tyrosine-protein kinase JAK2 (Homo sapiens, UniProt O60674); assay: Inhibition of human JAK2 kinase domain using biotin-Lyn-substrate-2 as substrate incubated for 1 hr by ELISA method
[42] = target: Mitogen-activated protein kinase kinase kinase 9 (Homo sapiens, UniProt P80192); assay: Inhibition of MLK1 (unknown origin)
[43] = Half life in beagle dog at 1 mg/kg, iv by LC/MS/MS method; assay type: ADME, organism-based, Canis lupus familiaris; details: in vivo
[44] = Total clearance in cynomolgus monkey at 1 mg/kg, iv by LC/MS/MS method; assay type: ADME, organism-based, Macaca fascicularis; details: in vivo
[45] = target: Tyrosine-protein kinase JAK1 (Homo sapiens, UniProt P23458); assay: Inhibition of human JAK1 kinase domain using biotin-Lyn-substrate-2 as substrate incubated for 1 hr by ELISA method
Chain of Tyrosine-protein kinase JAK1 (P23458 whole entry, the tested form may be a part): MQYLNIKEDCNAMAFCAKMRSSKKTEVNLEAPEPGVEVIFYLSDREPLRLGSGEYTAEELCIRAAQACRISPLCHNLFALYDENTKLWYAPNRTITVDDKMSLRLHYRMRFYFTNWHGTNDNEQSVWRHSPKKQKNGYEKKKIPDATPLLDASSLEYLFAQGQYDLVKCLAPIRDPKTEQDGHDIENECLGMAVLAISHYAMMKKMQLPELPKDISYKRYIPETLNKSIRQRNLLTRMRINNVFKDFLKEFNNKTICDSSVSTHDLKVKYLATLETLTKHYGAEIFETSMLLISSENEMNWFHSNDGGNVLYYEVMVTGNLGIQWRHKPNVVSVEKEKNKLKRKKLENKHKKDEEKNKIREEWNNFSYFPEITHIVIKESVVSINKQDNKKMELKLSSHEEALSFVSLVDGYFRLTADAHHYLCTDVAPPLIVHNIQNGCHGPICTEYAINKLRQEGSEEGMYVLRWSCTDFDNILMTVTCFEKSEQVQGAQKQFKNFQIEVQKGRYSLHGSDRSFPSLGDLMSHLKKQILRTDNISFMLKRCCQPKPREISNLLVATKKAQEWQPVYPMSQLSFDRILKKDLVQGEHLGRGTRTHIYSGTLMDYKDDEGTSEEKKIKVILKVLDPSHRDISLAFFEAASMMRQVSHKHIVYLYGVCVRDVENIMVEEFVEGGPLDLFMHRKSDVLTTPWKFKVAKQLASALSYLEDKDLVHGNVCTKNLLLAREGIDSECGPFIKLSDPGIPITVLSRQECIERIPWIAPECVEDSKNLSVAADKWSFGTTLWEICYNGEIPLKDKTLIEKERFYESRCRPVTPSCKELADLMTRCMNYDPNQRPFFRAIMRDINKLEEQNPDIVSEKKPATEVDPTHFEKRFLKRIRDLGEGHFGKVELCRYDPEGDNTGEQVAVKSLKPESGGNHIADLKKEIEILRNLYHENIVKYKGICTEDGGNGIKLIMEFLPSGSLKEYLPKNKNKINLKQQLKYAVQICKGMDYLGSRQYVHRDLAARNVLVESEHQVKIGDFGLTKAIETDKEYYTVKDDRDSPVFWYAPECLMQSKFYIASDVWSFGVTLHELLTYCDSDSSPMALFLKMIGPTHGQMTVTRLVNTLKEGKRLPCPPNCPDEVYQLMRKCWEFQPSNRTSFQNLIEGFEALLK

Chain of Tyrosine-protein kinase CSK (P41240 whole entry): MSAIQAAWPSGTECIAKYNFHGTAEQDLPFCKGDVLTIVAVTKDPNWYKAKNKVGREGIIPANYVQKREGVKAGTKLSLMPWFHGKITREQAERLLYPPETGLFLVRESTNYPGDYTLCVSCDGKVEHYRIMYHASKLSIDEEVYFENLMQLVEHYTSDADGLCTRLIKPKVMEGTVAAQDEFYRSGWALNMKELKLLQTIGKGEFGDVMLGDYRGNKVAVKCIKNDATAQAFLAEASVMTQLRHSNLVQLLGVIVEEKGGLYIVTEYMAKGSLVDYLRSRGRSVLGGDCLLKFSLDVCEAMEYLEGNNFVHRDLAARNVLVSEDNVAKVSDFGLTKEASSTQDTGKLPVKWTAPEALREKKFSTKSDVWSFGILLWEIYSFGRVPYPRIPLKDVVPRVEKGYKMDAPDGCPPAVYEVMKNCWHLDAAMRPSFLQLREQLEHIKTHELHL

Q: Which results are given for N#Cc1ccc(N2CC[C@@H](Nc3c(C(N)=O)cnc4[nH]ccc34)[C@@H](F)C2)nc1?
A: IC50 [1]: > 1000 nM; Vd [2]: 1.5 L/kg; AUC(0-t) at 24 h [3]: 8690 ng·h/mL; AUC(0-t) at 24 h [4]: 3200 ng·h/mL; IC50 [5]: 560 nM; IC50 [6]: 130 nM; IC50 [7]: > 1000 nM; IC50 [8]: > 1000 nM; IC50 [9]: > 1000 nM; clearance [10]: 3 mL/min/kg; inhibition (Rattus norvegicus [11]): Dose-dependent effect; CLint scaled at 0.2 µM [12]: 18.8 mL/min/kg; AUC(0-t) at 24 h [13]: 5650 ng·h/mL; AUC(0-t) at 24 h [14]: 8300 ng·h/mL; IC50 (Ephrin type-A receptor 2): > 1000 nM; IC50 [15]: > 1000 nM; Cmax [16]: 666 ng/mL; bioavailability [17]: 64.3%; bioavailability [18]: 70.7%; Vd [19]: 1.1 L/kg; AUC(0-t) at 24 h [20]: 4490 ng·h/mL; Cmax [21]: 684 ng/mL; MST (Rattus norvegicus [22]): 22 days; IC50 [23]: > 1000 nM; IC50 [24]: 470 nM; IC50 [25]: > 1000 nM; IC50 [26]: 590 nM; IC50 [27]: > 1000 nM; IC50 [28]: > 1000 nM; MST (Rattus norvegicus [29]): 11.5 days; IC50 (Focal adhesion kinase 1): > 1000 nM; half-life [30]: 3 h; IC50 [31]: > 1000 nM; Tmax [32]: 5.3 h; IC50 [33]: 950 nM; IC50 [34]: > 1000 nM; IC50 [35]: 320 nM; IC50 [36]: > 1000 nM; bioavailability [37]: 49.1%; AUC(0-t) at 24 h [38]: 6780 ng·h/mL; Vd [39]: 1 L/kg; clearance [40]: 5.3 mL/min/kg; IC50 [41]: 3.2 nM; IC50 [42]: 51 nM; half-life [43]: 4.2 h; clearance [44]: 3.8 mL/min/kg; IC50 [45]: 4.1 nM
